This is an account of results in patent US11459315B2, “Modulators of methyl modifying enzymes, compositions and uses thereof” (Constellation Pharmaceuticals, Inc., priority 2017, dated 2022).

Like-named read-outs stand apart in the source and are kept apart here. Where only a bound is given, the exact number is not on record here.

In general, EC50 refers to the concentration needed to bring the measured effect to its halfway point.

The target of assay [1] is PRC2 containing wt EZH2 (Homo sapiens (Human), UniProt Q15910). Nature of the assay: EZH2 residence time assay (100-fold dilution of pre-formed enzyme-inhibitor complex). In kind it is biochemical. The protocol: EZH2 residence time assay: Compound residence times were assessed by monitoring the recovery of enzyme activity following a 100-fold dilution of pre-formed enzyme-inhibitor complex (dilution reaction), and comparing it to the activity of an undiluted control with the same final concentrations of all reagents (control reaction). Enzyme activity was measured by incorporation of ^3H-SAM into a biotinylated H3 peptide. […] For the control reaction, 0.202 nM PRC2 was pre-incubated with 1 μM activating peptide, 1.01 μM SAM, 1.01 μM ^3H-SAM, and compound at 6.06 times its Ki for 2 h in 138.6 μL of buffer, then the reaction was initiated by the addition of 1.4 μL 500 μM substrate peptide in water. Reactions were quenched at various time points spanning up to 10 hours, by transferring 8 μL aliquots from the reaction vessel to a plate containing 8 μL per well of STOP solution (50 mM Tris pH 8.5, 200 mM EDTA, 2 mM SAH). After the last time point, 12 μL of the quenched solutions were transferred to a streptavidin coated FlashPlate (PerkinElmer) containing 40 μL per well of STOP solution, incubated 1-8 h, washed, and read in a TopCount plate reader (PerkinElmer). A custom script was used to fit control reaction progress data to a straight line and dilution reaction progress data:
Where y is the product formed, t is the reaction time, vi is the initial velocity, vs is the steady state velocity, and kobs is the rate constant for the transition from the initial velocity phase of the curve to the steady state velocity phase of the curve. In fitting the dilution reaction progress data, vs was constrained to the slope of the line fitted to the control reaction progress data. The fitted value of kobs was then transformed into residence time:
Where τ is residence time, Ki is the inhibition constant, [EI] is the calculated equilibrium concentration of enzyme-inhibitor complex, [E] is the calculated equilibrium concentration of free enzyme, and [I] is the calculated equilibrium concentration of free inhibitor.

The test system of assay [2] is H3K27me3 mark in HeLa cells (EZH2). Nature of the assay: H3K27me3 Alpha Hela Assay (AlphaLISA). In kind it is cell-based. The note with it: HeLa cell assay, Table 3 classes, read-out: EC50 Cellular Activity. The procedure, abridged:
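HeLa cells (1,000/well) treated with ten 3-fold compound doses for 72 h at 37 °C; lysates extracted and H3K27me3 detected by AlphaLISA with anti-K27me3 acceptor beads, biotinylated anti-H3 (3 nM) and streptavidin donor beads. EC50 from DMSO-normalized dose-response curves; duplicate plate assessed viability.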

Chain of PRC2 containing wt EZH2 (Q15910 whole entry): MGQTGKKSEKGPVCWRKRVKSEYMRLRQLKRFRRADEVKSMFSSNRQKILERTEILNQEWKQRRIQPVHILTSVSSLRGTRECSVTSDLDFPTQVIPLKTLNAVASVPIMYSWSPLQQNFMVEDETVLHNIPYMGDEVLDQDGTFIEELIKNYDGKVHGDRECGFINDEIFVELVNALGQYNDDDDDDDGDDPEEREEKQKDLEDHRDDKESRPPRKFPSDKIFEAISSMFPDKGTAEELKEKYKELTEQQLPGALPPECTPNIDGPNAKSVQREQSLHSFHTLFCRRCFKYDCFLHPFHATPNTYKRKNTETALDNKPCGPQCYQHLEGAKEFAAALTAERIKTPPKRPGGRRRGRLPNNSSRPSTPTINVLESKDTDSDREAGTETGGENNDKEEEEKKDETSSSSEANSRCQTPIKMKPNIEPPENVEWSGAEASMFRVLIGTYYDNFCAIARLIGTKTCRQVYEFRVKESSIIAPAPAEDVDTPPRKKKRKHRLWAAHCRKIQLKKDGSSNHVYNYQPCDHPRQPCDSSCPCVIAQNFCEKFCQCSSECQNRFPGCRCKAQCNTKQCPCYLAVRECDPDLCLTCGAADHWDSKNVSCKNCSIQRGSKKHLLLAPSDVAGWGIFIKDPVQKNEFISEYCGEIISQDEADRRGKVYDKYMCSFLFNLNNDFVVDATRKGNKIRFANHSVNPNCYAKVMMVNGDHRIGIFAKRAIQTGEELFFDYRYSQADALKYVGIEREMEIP
Chain of PRC2 containing wt EZH2 (O75530 whole entry partner): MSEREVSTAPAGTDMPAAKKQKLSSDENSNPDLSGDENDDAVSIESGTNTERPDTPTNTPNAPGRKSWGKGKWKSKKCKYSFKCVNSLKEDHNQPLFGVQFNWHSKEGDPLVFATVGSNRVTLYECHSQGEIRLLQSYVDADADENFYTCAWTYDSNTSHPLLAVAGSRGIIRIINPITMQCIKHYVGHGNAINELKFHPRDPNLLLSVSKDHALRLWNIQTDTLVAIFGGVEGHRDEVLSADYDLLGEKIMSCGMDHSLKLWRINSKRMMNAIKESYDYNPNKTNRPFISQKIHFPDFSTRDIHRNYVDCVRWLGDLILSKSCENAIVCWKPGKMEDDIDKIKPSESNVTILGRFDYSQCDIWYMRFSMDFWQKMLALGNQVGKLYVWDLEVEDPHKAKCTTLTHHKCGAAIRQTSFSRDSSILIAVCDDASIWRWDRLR
Chain of PRC2 containing wt EZH2 (Q15022 whole entry partner): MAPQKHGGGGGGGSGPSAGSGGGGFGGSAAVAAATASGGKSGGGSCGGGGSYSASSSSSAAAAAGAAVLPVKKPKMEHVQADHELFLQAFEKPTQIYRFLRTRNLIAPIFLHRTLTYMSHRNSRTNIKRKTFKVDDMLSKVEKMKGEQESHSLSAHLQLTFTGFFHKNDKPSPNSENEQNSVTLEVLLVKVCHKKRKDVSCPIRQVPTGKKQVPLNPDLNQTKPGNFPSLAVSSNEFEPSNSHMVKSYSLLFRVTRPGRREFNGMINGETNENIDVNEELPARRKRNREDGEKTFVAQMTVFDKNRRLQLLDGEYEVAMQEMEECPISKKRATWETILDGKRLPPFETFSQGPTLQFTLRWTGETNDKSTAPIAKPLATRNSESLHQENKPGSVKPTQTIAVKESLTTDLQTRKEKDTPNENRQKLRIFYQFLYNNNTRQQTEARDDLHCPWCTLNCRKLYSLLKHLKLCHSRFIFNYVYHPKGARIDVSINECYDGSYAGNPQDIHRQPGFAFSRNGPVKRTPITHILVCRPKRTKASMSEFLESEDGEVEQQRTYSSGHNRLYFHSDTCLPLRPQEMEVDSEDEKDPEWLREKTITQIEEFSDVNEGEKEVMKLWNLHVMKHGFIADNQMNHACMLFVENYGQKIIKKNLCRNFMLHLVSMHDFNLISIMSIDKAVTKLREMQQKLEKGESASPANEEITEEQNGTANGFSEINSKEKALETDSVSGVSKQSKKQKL
Chain of PRC2 containing wt EZH2 (Q09028 whole entry partner): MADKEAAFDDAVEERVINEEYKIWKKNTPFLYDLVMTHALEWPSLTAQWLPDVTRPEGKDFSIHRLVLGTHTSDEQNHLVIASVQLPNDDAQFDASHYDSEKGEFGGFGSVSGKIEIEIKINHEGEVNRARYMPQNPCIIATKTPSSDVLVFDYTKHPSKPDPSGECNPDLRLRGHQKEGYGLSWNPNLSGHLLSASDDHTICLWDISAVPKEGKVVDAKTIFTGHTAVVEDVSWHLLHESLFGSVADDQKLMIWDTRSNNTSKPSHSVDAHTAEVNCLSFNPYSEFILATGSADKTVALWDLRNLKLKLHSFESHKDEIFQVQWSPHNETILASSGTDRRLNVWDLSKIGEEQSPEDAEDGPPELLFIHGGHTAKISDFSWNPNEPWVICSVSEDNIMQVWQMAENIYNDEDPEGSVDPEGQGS
Chain of PRC2 containing wt EZH2 (Q6ZN18 whole entry partner): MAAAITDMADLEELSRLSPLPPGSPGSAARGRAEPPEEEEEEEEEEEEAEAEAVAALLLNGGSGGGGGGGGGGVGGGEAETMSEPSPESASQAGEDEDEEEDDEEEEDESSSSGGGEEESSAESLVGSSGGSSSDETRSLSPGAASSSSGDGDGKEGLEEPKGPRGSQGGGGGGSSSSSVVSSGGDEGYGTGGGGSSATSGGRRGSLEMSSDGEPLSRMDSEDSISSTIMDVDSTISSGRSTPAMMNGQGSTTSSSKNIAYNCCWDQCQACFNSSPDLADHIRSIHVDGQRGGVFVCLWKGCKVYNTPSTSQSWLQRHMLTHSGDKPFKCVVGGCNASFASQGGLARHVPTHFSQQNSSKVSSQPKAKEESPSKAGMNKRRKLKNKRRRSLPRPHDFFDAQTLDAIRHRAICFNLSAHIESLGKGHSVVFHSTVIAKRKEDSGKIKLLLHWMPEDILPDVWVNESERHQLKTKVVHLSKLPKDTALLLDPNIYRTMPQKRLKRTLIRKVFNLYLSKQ

As to `CSc1cc(C)[nH]c(=O)c1CNC(=O)c1c(C)n([C@H](C)C2OCC(N(C)C)CO2)c2ccccc12` (single isomer, unassigned) [drawing 231], the “residence time” value in assay [1] is given as “D (a t value of less or equal than 0.5 hours)”. Moreover, in assay [2], the EC50 was over 125 nM.
As for `CSc1cc(C)[nH]c(=O)c1CNC(=O)c1c(C)n([C@H](C)C2OCC(N(C)C)CO2)c2ccccc12` (single isomer, unassigned) [drawing 232], in assay [1], the “residence time” value is “B (a t value of greater than 5 hours but less or equal than 35 hours)”. Moreover, in assay [2], the EC50 is under 5 nM.
In assay [1], `COC1CCC([C@@H](C)n2c(C)c(C(=O)NCc3c(SC)cc(C)[nH]c3=O)c3ccccc32)CC1` (single isomer, unassigned) [drawing 248] had a residence time of over 2100 min. Further, the EC50 in assay [2] is under 5 nM.
With `CSc1cc(C)[nH]c(=O)c1CNC(=O)c1c(C)n([C@H](C)C2CCC(O)CC2)c2ccccc12` (single isomer, unassigned) [drawing 250], the “residence time” value in assay [1] was “B (a t value of greater than 5 hours but less or equal than 35 hours)”. Besides, the EC50 in assay [2] (Homo sapiens, HeLa) was under 5 nM.
For `CSc1cc(C)[nH]c(=O)c1CNC(=O)c1c(C)n([C@H](C)C2CCC(O)CC2)c2ccccc12` (single isomer, unassigned) [drawing 251], the “residence time” value in assay [1] is given as “A (value of greater than 35 hours)”. Also, the EC50 in assay [2] is under 5 nM.
Take `CSc1cc(C)[nH]c(=O)c1CNC(=O)c1c(C)n([C@H](C)C2CCC(N3CC(OC(F)F)C3)CC2)c2ccccc12` (single isomer, unassigned) [drawing 252]: the residence time in assay [1] was over 2100 min. The EC50 in assay [2] (Homo sapiens, HeLa) is under 5 nM.
The corresponding values for `CSc1cc(C)[nH]c(=O)c1CNC(=O)c1c(C)n([C@H](C)C2CCC(N3CC(F)C3)CC2)c2ccccc12` (single isomer, unassigned) [drawing 254] are “A (value of greater than 35 hours)” and under 5 nM.
For the compound `CSc1cc(C)[nH]c(=O)c1CNC(=O)c1c(C)n([C@H](C)C2CCC(N3CC(F)C3)CC2)c2ccccc12` (single isomer, unassigned) [drawing 255], the “residence time” value in assay [1] is “C (a t value of greater than 0.5 hours but less or equal than 5 hours)”. Further, the EC50 in assay [2] was in the range of 5 to 25 nM.
On to `COC1CN(C2CCC([C@@H](C)n3c(C)c(C(=O)NCc4c(SC)cc(C)[nH]c4=O)c4cccnc43)CC2)C1` (single isomer, unassigned) [drawing 259], for which, in assay [1], the residence time lay within 300 to 2100 min. Besides, the EC50 in assay [2] is 5 to 25 nM.
On to `CCOC1CN(C2CCC([C@@H](C)n3c(C)c(C(=O)NCc4c(SC)cc(C)[nH]c4=O)c4cccnc43)CC2)C1` (single isomer, unassigned) [drawing 261], for which, in assay [1] (read-out: Residence Time), the residence time is 300 to 2100 min. The EC50 in assay [2] is under 5 nM.
In assay [1], `CSc1cc(C)[nH]c(=O)c1CNC(=O)c1c(C)n([C@H](C)C2CCC(NC3(C)CCOC3)CC2)c2ccccc12` (single isomer, unassigned) [drawing 269] had a residence time of over 2100 min. The EC50 in assay [2] is 5 to 25 nM.
In assay [1], `CSc1cc(C)[nH]c(=O)c1CNC(=O)c1c(C)n([C@H](C)C23CC(NC4COC4)(C2)C3)c2ccccc12` [drawing 234] had a residence time of 300 to 2100 min. In addition, the EC50 in assay [2] (Homo sapiens, HeLa) is under 5 nM.
The corresponding values for `CSc1cc(C)[nH]c(=O)c1CNC(=O)c1c(C)n([C@H](C)C23CC(N(C)CC(F)(F)F)(C2)C3)c2ccccc12` [drawing 237] are 300 to 2100 min and 5 to 25 nM.
Taken in the same sequence, the figures for `CSc1cc(C)[nH]c(=O)c1CNC(=O)c1c(C)n([C@H](C)C2CCN(CC(C)(C)O)CC2)c2ccccc12` [drawing 240] were 300 to 2100 min and 25 to 125 nM.
For `CSc1cc(C)[nH]c(=O)c1CNC(=O)c1c(C)n([C@H](C)C2CCN(CC(F)(F)F)CC2)c2ccccc12` [drawing 243], the residence time in assay [1] is 300 to 2100 min. The EC50 in assay [2] (Homo sapiens, HeLa) was under 5 nM.
As to `CSc1cc(C)[nH]c(=O)c1CNC(=O)c1c(C)n([C@H](C)C2CCOCC2)c2ccccc12` [drawing 247], the residence time in assay [1] fell in the range of 30 to 300 min. Besides, in assay [2] (Homo sapiens, HeLa), the 50% effective concentration (EC50) was under 5 nM.
Taken in the same sequence, the figures for `CSc1cc(C)[nH]c(=O)c1CNC(=O)c1c(C)n([C@H](C)C2CCN(C3CC3)CC2)c2ncccc12` [drawing 256] were 300 to 2100 min and under 5 nM.
For the compound `COC1CN(C2CCC([C@@H](C)n3c(C)c(C(=O)NCc4c(SC5CC5)cc(C)[nH]c4=O)c4ccccc43)CC2)C1` (stereo partly drawn) [drawing 264], the residence time in assay [1] lay within 300 to 2100 min. The EC50 in assay [2] (Homo sapiens, HeLa) lay within 5 to 25 nM.
The corresponding values for `CCSc1cc(C)[nH]c(=O)c1CNC(=O)c1c(C)n([C@H](C)C2CCN(CC(F)(F)F)CC2)c2ccccc12` [drawing 265] are under 30 min and 25 to 125 nM.
The corresponding values for `Cc1cc(SC(F)F)c(CNC(=O)c2c(C)n([C@H](C)C3CCN(CC(F)(F)F)CC3)c3ccccc23)c(=O)[nH]1` [drawing 266] are under 30 min and 25 to 125 nM.
Taken in the same sequence, the figures for `Cc1cc(SC2CCC2)c(CNC(=O)c2c(C)n([C@H](C)C3CCN(CC(F)(F)F)CC3)c3ccccc23)c(=O)[nH]1` [drawing 267] were 30 to 300 min and 25 to 125 nM.
